# Measurements as given in patent US20240334932A1, “POLYMORPHS HAVING PESTICIDAL ACTIVITY” (CORTEVA AGRISCIENCE LLC, priority 2021, published 2024).
# Assays:
# [1] = Dissolution in hexane (anti-solvent); format: physicochemical
# [2] = system: adult sweet potato whitefly, B. tabaci; assay: Knock-down study, treated glass vial bioassay, hexane anti-solvent experiment (Example 13B); format: in vivo; conditions: for Effect on B. tabaci behavior compared with the amorphous oil: hexane; for Trt Least Squares Means (proportion scale) Mean: proportion of insects above the 2 cm line: hexane anti-solvent suspension, repeated measures 15-180 min, GLMM
# Method: In this study, the effect of Compound 1 on the behavior of adult sweet potato whitefly, B. tabaci was evaluated. In general, different forms of Compound 1 (either inventive Polymorph form A, inventive Polymorph form B, or non-crystalline Compound 1, amorphous oil) were applied to the inside of glass vials and adult B. tabaci were transferred into treated vials, exposing them to Compound 1 via contact with the treated glass surface. To quantify the knock-down effect reported previously (Lee et. al. 2013), a line was scribed 2 cm above the bottom of the treated vials and the number of B. tabaci above the 2 cm line were recorded the first three hours following initial exposure. […] This study characterized the effect of Compound 1, Polymorph A and Compound 1, Polymorph B on adult B. tabaci whitefly behavior using a common treated glass vial bioassay to expose the test insects through direct contact (Busvine 1971), and compared those effects in direct head-to-head comparison with non-cystalline Compound 1. Test compounds were either dissolved in acetone (Example 11A) or suspended in a volatile anti-solvent (hexane) (Example 11B), and then evenly coated on the inside of a glass vial using a laboratory-roller. In this experiment, three forms of Compound 1 (Polymorph form A, Polymorph form B, and non-crystalline, amorphous oil) were evaluated for their effect on B. tabaci behavior, polymorph A, polymorph B and an amorphous oil. The samples of Polymorph form A and Polymorph form B were finely milled as described in Example 12. The experimental design of the hexane experiment, including rates (25, 2.5, and 0.25 g/ha), replication (three replications per treatment), and preparation of the treatment suspension was similar to the process described for Example 13A. However, hexane was used instead of acetone. […] Following sonication, samples were again mixed using a vortex mixer immediately before transferring 151 μl of each stock suspension to 11.85 mL of hexane to create the treatment suspension for the 25 g/ha rate (resulting in 0.25 μg/cm^2). The 25 g/ha treatment suspension was serially diluted ten-fold, two times to generate treatment suspensions for the 2.5 and 0.25 g/ha rates. 3 mL of each treatment suspension was transferred into the 11-dram vials and the vials were placed on a laboratory tube roller and rotated at room temperature until the hexane had fully evaporated, leaving an even coating of Compound 1 particles on the inside of the vials. The solvent blank vials were treated with 3 mL of hexane. Following treatment, the vials were stored, infested with approximately 117.4, 47-219 (Mean, min-max) adult B. tabaci, and evaluated as described in the acetone experiment. For each trial and rate, the proportion of insects above the 2 cm line was analyzed with a generalized linear mixed model (GLMM) for repeated measures with binomial response and logit link function (Stroup, 2012). The use of the generalized linear model with binomial distribution for the response, instead of the linear model with normal distribution (ANOVA), allows the correct use of the distributional assumptions and actual sample size (number of insects) used in the experiments. The model included Treatment, Time point, and the interaction Treatment x Time point as fixed effects and the replicate (experimental unit) as random effect. The correlation between repeated measures was modeled with the compound symmetry covariance matrix. The generalized linear mixed models were estimated with the residual pseudo-likelihood method, and the means of the treatment proportions were compared with Tukey's tests (α=0.05) (Stroup 2012). Statistical analyses were performed with SAS Proc GLIMMIX (SAS Software, Version 9.4, SAS Institute Inc., Cary, NC).
# [3] = Air milling of polymorphs, PXRD before and after (Example 12); format: physicochemical; conditions: Jet Mill to d(0.5)<6 μm and d(0.9)<15 μm
# Method: Compound 1, Polymorph A and Compound 1, Polymorph B samples were air milled separately with Jet Mill until particle size of d (0.5)<6 μm and d (0.9)<15 μm. Powder X-Ray Diffraction (PXRD) was conducted on the samples before and after the air milling process.
# [4] = system: adult sweet potato whitefly, B. tabaci; assay: Knock-down study, treated glass vial bioassay, acetone experiment (Example 13A); format: in vivo, B. tabaci (Middle East Asia Minor1 (MEAM1) biotype); conditions: for Effect on B. tabaci behavior compared with the amorphous oil: acetone; for Trt Least Squares Means (proportion scale) Mean: proportion of insects above the 2 cm line: applied from acetone, repeated measures 15-180 min, GLMM
# Method: In this study, the effect of Compound 1 on the behavior of adult sweet potato whitefly, B. tabaci was evaluated. In general, different forms of Compound 1 (either inventive Polymorph form A, inventive Polymorph form B, or non-crystalline Compound 1, amorphous oil) were applied to the inside of glass vials and adult B. tabaci were transferred into treated vials, exposing them to Compound 1 via contact with the treated glass surface. To quantify the knock-down effect reported previously (Lee et. al. 2013), a line was scribed 2 cm above the bottom of the treated vials and the number of B. tabaci above the 2 cm line were recorded the first three hours following initial exposure.
# This study characterized the effect of Compound 1, Polymorph A and Compound 1, Polymorph B on adult B. tabaci whitefly behavior using a common treated glass vial bioassay to expose the test insects through direct contact (Busvine 1971), and compared those effects in direct head-to-head comparison with non-cystalline Compound 1. Test compounds were either dissolved in acetone (Example 11A) or suspended in a volatile anti-solvent (hexane) (Example 11B), and then evenly coated on the inside of a glass vial using a laboratory-roller.
# In this experiment, two forms of Compound 1 (polymorph form B and an amorphous oil) were evaluated for their effect on B. tabaci behavior. Three application rates were evaluated for each form of Compound 1 (25 g/ha, 2.5 g/ha,and 0.25 g/ha), in addition to a solvent blank control. Each treatment and the control were replicated three times. Compound 1 samples were dissolved in acetone and were coated on the inside of a 11-dram screw-top glass vial (Fisherbrand 03-339-21N) (Fisher Scientific, Hampton, NH). […] To treat the vials, a stock solution of each sample was first prepared by dissolving 1 mg of Compound 1 sample (either polymorph form B or an amorphous oil) in 2 ml of acetone. The stock solution was agitated using a laboratory vortex mixer to ensure complete mixture of the solution. 151 μL of each stock solution was added to 11.85 mL of acetone to create the treatment solution for the 25 g/ha rate (resulting in 0.25 μg/cm^2). The 25 g/ha treatment solution was serially diluted ten-fold, two times to generate treatment solutions for the 2.5 and 0.25 g/ha rates. 3 mL of each treatment solution was transferred into the 11-dram vials and the vials were placed on a laboratory tube roller and rotated at room temperature until the acetone had fully evaporated, leaving a coating of Compound 1 on the inside of the vials. The solvent blank vials were treated with 3 mL of acetone. After treatment, the vials were left open in a fume hood overnight at room temperature in preparation for testing the following day. Mixed-sex adult B. tabaci whiteflies (Middle East Asia Minor1 (MEAM1) biotype) were collected from a susceptible colony maintained at Corteva Agriscience (Indianapolis, IN). The adult B. tabaci were anesthetized with CO2 and approximately 66.5, 32-102 (Mean, min-max) were introduced into each of the treated vials and their behavior recorded. To evaluate B. tabaci behavior, a line was scribed 2 cm above the bottom of the vial and the number of individuals above the line were recorded at 15, 30, 45, 60, 90, 120, 150, and 180 min after introduction. Following completion of the experiment, the insects were devitalized by freezing at −30° C. for 72 h after which the total number of insects in each vial was recorded. The percentage of B. tabaci above the 2 cm line was calculated for each rate and was used to graph the effect of Compound 1 on whiteflies over time.
# For each trial and rate, the proportion of insects above the 2 cm line was analyzed with a generalized linear mixed model (GLMM) for repeated measures with binomial response and logit link function (Stroup, 2012). […]
smiles,measurement,setting,value
"CCN(C(=O)CCS(C)(=O)=O)c1sc(-c2cccnc2)nc1Cl [Compound 1, N-[4-chloro-2-(pyridin-3-yl)-1,3-thiazol-5-yl]-N-ethyl-3-(methylsulfonyl) propanamide]",Solubility in hexane,[1],does not readily dissolve
"CCN(C(=O)CCS(C)(=O)=O)c1sc(-c2cccnc2)nc1Cl [Polymorph A, N-[4-chloro-2-(pyridin-3-yl)-1,3-thiazol-5-yl]-N-ethyl-3-(methylsulfonyl) propanamide]",Effect on B. tabaci behavior compared with the amorphous oil,[2]; 0.25 g/ha,more negatively affected than those exposed to the amorphous oil
same,Trt Least Squares Means (proportion scale) Mean: proportion of insects above the 2 cm line,[2]; 0.25 g/ha,0.342
same,Effect on B. tabaci behavior compared with the amorphous oil,[2]; 2.5 g/ha,significantly affected when compared directly to the amorphous oil
same,Trt Least Squares Means (proportion scale) Mean: proportion of insects above the 2 cm line,[2]; 2.5 g/ha,0.080
same,Effect on B. tabaci behavior compared with the amorphous oil,[2]; 25 g/ha,not a difference in the effect
same,Trt Least Squares Means (proportion scale) Mean: proportion of insects above the 2 cm line,[2]; 25 g/ha,0.015
same,Polymorphic form after the air milling process (PXRD),[3],unchanged
"CCN(C(=O)CCS(C)(=O)=O)c1sc(-c2cccnc2)nc1Cl [Polymorph B, N-[4-chloro-2-(pyridin-3-yl)-1,3-thiazol-5-yl]-N-ethyl-3-(methylsulfonyl) propanamide]",Effect on B. tabaci behavior compared with the amorphous oil,[4]; 0.25 g/ha,not a difference in the effect
same,Trt Least Squares Means (proportion scale) Mean: proportion of insects above the 2 cm line,[4]; 0.25 g/ha,0.502
same,Effect on B. tabaci behavior compared with the amorphous oil,[4]; 2.5 g/ha,more affected than insects exposed to the amorphous oil
same,Trt Least Squares Means (proportion scale) Mean: proportion of insects above the 2 cm line,[4]; 2.5 g/ha,0.156
same,Effect on B. tabaci behavior compared with the amorphous oil,[4]; 25 g/ha,no difference in the effect
same,Trt Least Squares Means (proportion scale) Mean: proportion of insects above the 2 cm line,[4]; 25 g/ha,0.115
same,Effect on B. tabaci behavior compared with the amorphous oil,[2]; 0.25 g/ha,more negatively affected than those exposed to the amorphous oil
same,Trt Least Squares Means (proportion scale) Mean: proportion of insects above the 2 cm line,[2]; 0.25 g/ha,0.345
same,Effect on B. tabaci behavior compared with the amorphous oil,[2]; 2.5 g/ha,significantly affected when compared directly to the amorphous oil
same,Trt Least Squares Means (proportion scale) Mean: proportion of insects above the 2 cm line,[2]; 2.5 g/ha,0.079
same,Effect on B. tabaci behavior compared with the amorphous oil,[2]; 25 g/ha,not a difference in the effect
same,Trt Least Squares Means (proportion scale) Mean: proportion of insects above the 2 cm line,[2]; 25 g/ha,0.013
same,Polymorphic form after the air milling process (PXRD),[3],unchanged
"CCN(C(=O)CCS(C)(=O)=O)c1sc(-c2cccnc2)nc1Cl [amorphous oil, N-[4-chloro-2-(pyridin-3-yl)-1,3-thiazol-5-yl]-N-ethyl-3-(methylsulfonyl) propanamide, reference compound]",Trt Least Squares Means (proportion scale) Mean: proportion of insects above the 2 cm line,[4]; 0.25 g/ha,0.295
same,Trt Least Squares Means (proportion scale) Mean: proportion of insects above the 2 cm line,[4]; 2.5 g/ha,0.326
same,Trt Least Squares Means (proportion scale) Mean: proportion of insects above the 2 cm line,[4]; 25 g/ha,0.167
same,Trt Least Squares Means (proportion scale) Mean: proportion of insects above the 2 cm line,[2]; 0.25 g/ha,0.601
same,Trt Least Squares Means (proportion scale) Mean: proportion of insects above the 2 cm line,[2]; 2.5 g/ha,0.453
same,Trt Least Squares Means (proportion scale) Mean: proportion of insects above the 2 cm line,[2]; 25 g/ha,0.029
